Species: Rattus norvegicus
Assay: DrugMatrix - Regimen: Daily Repeat
Assay type: toxicity, organism-based, Sprague-Dawley
Set-up: regimen Daily Repeat, gender Male, age 6-8 weeks
Conditions: in vivo, sc, route subcutaneous, […]; for ABSOLUTE BASOPHIL / ABSOLUTE EOSINOPHIL / ABSOLUTE LYMPHOCYTE / ABSOLUTE MONOCYTE / ABSOLUTE SEGMENTED NEUTROPHIL / BASOPHIL / EOSINOPHIL / ERYTHROCYTE COUNT / HEMATOCRIT / HEMOGLOBIN / LEUKOCYTE COUNT / LYMPHOCYTE / MEAN CORPUSCULAR HEMOGLOBIN / MEAN CORPUSCULAR HEMOGLOBIN CONCENTRATION / MEAN CORPUSCULAR VOLUME / MONOCYTE / NEUTROPHIL / NUCLEATED RED BLOOD CELLS / PLATELET COUNT: tissue Blood; for ALANINE AMINOTRANSFERASE / ALBUMIN / ALKALINE PHOSPHATASE / ASPARTATE AMINOTRANSFERASE / BLOOD UREA NITROGEN / CARBON DIOXIDE / CHLORIDE / CHOLESTEROL / CREATINE PHOSPHOKINASE / CREATININE / GLUCOSE / LACTATE DEHYDROGENASE / LIPASE / PHOSPHORUS / POTASSIUM / SODIUM / TOTAL BILIRUBIN / TOTAL PROTEIN / URIC ACID: tissue Plasma
[1] = 14 mg/kg, 120 h, dose level Low, time 5 day
[2] = 140 mg/kg, 72 h, dose level High, time 3 day
[3] = 140 mg/kg, 120 h, dose level High, time 5 day

## CCN(CC)CCOCCC1=CCC2CC1C2(C)C (centres undefined) [MYRTECAINE]
[1]
  ABSOLUTE BASOPHIL: 0 CELLS/uL
  ABSOLUTE EOSINOPHIL: 435.67 CELLS/uL
  ABSOLUTE LYMPHOCYTE: 16182.67 CELLS/uL
  ABSOLUTE MONOCYTE: 0 CELLS/uL
  ABSOLUTE SEGMENTED NEUTROPHIL: 2215 CELLS/uL
  BASOPHIL: 0%
  EOSINOPHIL: 2.33%
  ERYTHROCYTE COUNT: 6.14 x10E6/uL
  HEMATOCRIT: 39.17%
  HEMOGLOBIN: 15.53 G/DL
  LEUKOCYTE COUNT: 18.83 x10E3/uL
  LYMPHOCYTE: 86%
  MEAN CORPUSCULAR HEMOGLOBIN: 25.33 pg
  MEAN CORPUSCULAR HEMOGLOBIN CONCENTRATION: 39.7 G/DL
  MEAN CORPUSCULAR VOLUME: 63.8 fL
  MONOCYTE: 0%
  NEUTROPHIL: 11.67%
  NUCLEATED RED BLOOD CELLS: 0 /100WBC
  PLATELET COUNT: 1530.33 x10E3/uL
  ALANINE AMINOTRANSFERASE: 58 u/L
  ALBUMIN: 4.53 G/DL
  ALKALINE PHOSPHATASE: 470.67 u/L
  ASPARTATE AMINOTRANSFERASE: 83.67 u/L
  BLOOD UREA NITROGEN: 17.67 mg/dL
  CARBON DIOXIDE: 31.67 mmol/L
  CHLORIDE: 104 MEQ/L
  CHOLESTEROL: 76.67 mg/dL
  CREATINE PHOSPHOKINASE: 162.33 u/L
  CREATININE: 0.26 mg/dL
  GLUCOSE: 157.67 mg/dL
  LACTATE DEHYDROGENASE: 142 u/L
  LIPASE: 9.67 u/L
  PHOSPHORUS: 14.37 mg/dL
  POTASSIUM: 7.28 MEQ/L
  SODIUM: 151.27 MEQ/L
  TOTAL BILIRUBIN: 0.3 mg/dL
  TOTAL PROTEIN: 6.67 G/DL
  URIC ACID: 2.23 mg/dL
[2]
  ABSOLUTE BASOPHIL: 0 CELLS/uL
  ABSOLUTE EOSINOPHIL: 42 CELLS/uL
  ABSOLUTE LYMPHOCYTE: 11279.33 CELLS/uL
  ABSOLUTE MONOCYTE: 191.33 CELLS/uL
  ABSOLUTE SEGMENTED NEUTROPHIL: 620.67 CELLS/uL
  BASOPHIL: 0%
  EOSINOPHIL: 0.33%
  ERYTHROCYTE COUNT: 5.34 x10E6/uL
  HEMATOCRIT: 33.37%
  HEMOGLOBIN: 13.6 G/DL
  LEUKOCYTE COUNT: 12.13 x10E3/uL
  LYMPHOCYTE: 93%
  MEAN CORPUSCULAR HEMOGLOBIN: 25.53 pg
  MEAN CORPUSCULAR HEMOGLOBIN CONCENTRATION: 40.77 G/DL
  MEAN CORPUSCULAR VOLUME: 62.57 fL
  MONOCYTE: 1.67%
  NEUTROPHIL: 5%
  NUCLEATED RED BLOOD CELLS: 0 /100WBC
  PLATELET COUNT: 1370.67 x10E3/uL
  ALANINE AMINOTRANSFERASE: 61.67 u/L
  ALBUMIN: 3.67 G/DL
  ALKALINE PHOSPHATASE: 346 u/L
  ASPARTATE AMINOTRANSFERASE: 92 u/L
  BLOOD UREA NITROGEN: 13.33 mg/dL
  CARBON DIOXIDE: 30.33 mmol/L
  CHLORIDE: 100.33 MEQ/L
  CHOLESTEROL: 67 mg/dL
  CREATINE PHOSPHOKINASE: 447 u/L
  CREATININE: 0.17 mg/dL
  GLUCOSE: 155.33 mg/dL
  LACTATE DEHYDROGENASE: 247.33 u/L
  LIPASE: 8 u/L
  PHOSPHORUS: 13.73 mg/dL
  POTASSIUM: 7.09 MEQ/L
  SODIUM: 144.03 MEQ/L
  TOTAL BILIRUBIN: 0.2 mg/dL
  TOTAL PROTEIN: 5.6 G/DL
  URIC ACID: 2.03 mg/dL
[3]
  ABSOLUTE BASOPHIL: 0 CELLS/uL
  ABSOLUTE EOSINOPHIL: 174.67 CELLS/uL
  ABSOLUTE LYMPHOCYTE: 14614 CELLS/uL
  ABSOLUTE MONOCYTE: 386 CELLS/uL
  ABSOLUTE SEGMENTED NEUTROPHIL: 2992 CELLS/uL
  BASOPHIL: 0%
  EOSINOPHIL: 1%
  ERYTHROCYTE COUNT: 6.17 x10E6/uL
  HEMATOCRIT: 37.83%
  HEMOGLOBIN: 14.87 G/DL
  LEUKOCYTE COUNT: 18.17 x10E3/uL
  LYMPHOCYTE: 81.33%
  MEAN CORPUSCULAR HEMOGLOBIN: 24.07 pg
  MEAN CORPUSCULAR HEMOGLOBIN CONCENTRATION: 39.33 G/DL
  MEAN CORPUSCULAR VOLUME: 61.3 fL
  MONOCYTE: 2.33%
  NEUTROPHIL: 15.33%
  NUCLEATED RED BLOOD CELLS: 0 /100WBC
  PLATELET COUNT: 1631 x10E3/uL
  ALANINE AMINOTRANSFERASE: 84.67 u/L
  ALBUMIN: 3.97 G/DL
  ALKALINE PHOSPHATASE: 328 u/L
  ASPARTATE AMINOTRANSFERASE: 111.67 u/L
  BLOOD UREA NITROGEN: 16 mg/dL
  CARBON DIOXIDE: 26.33 mmol/L
  CHLORIDE: 104 MEQ/L
  CHOLESTEROL: 74.67 mg/dL
  CREATINE PHOSPHOKINASE: 356 u/L
  CREATININE: 0.2 mg/dL
  GLUCOSE: 164.67 mg/dL
  LACTATE DEHYDROGENASE: 370 u/L
  LIPASE: 12 u/L
  PHOSPHORUS: 13.97 mg/dL
  POTASSIUM: 6.94 MEQ/L
  SODIUM: 146.77 MEQ/L
  TOTAL BILIRUBIN: 0.17 mg/dL
  TOTAL PROTEIN: 5.97 G/DL
  URIC ACID: 2.6 mg/dL
